The values that follow come from patent publication US12692253B2, “Antimicrobial compounds and methods” (Curza Global, LLC, priority 2019, dated 2026).

Where only a bound is given, the exact number is not on record here.

Test [1] deals with Rabbit Reticulocyte Lysate (eukaryotic protein synthesis). The test can be described thus: Rabbit reticulocyte lysate luciferase assay (inhibition of eukaryotic protein synthesis). The class given is biochemical. The note with it: % inhibition @ 1 μM, read-out: Rabbit reticulocyte IC50 (μM/% inhib.). In outline: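 Percent inhibition calculated against water-only controls from luminescence; background set by lysate lacking RNA. Compounds, 8-point 2-fold titration, incubated 90 minutes at 30° C with nuclease-treated rabbit reticulocyte lysate programmed with luciferase control RNA plus complete amino acids.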

In test [2] the test system is E. coli S30 extract (bacterial protein synthesis). As to the kind of experiment: E. coli S30 extract coupled transcription-translation luciferase assay (inhibition of bacterial protein synthesis). The format is biochemical. To be noted: % inhibition @ 1 μM, read-out: S30 IC50 (μM/% inhib.). In outline: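 Luciferase luminescence quantified inhibition of protein synthesis relative to water controls, with no-DNA reactions giving background. Compounds in 2-fold serial dilution (8 levels) were incubated 1 hour at 37 °C with E. coli S30 extract, amino acids and pBESTluc plasmid, then chilled to stop.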

For a further test, the system named is E. faecalis (Ef). The test can be described thus: Broth microdilution minimum inhibitory concentration (MIC), CLSI. The format is cell-based. To be noted: growth medium with sodium bicarbonate; for MIC: Enterococcus faecalis, read-out: Ef + bicarb MIC. In outline: (§1)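 CLSI M07-A9 broth microdilution, slightly modified: 8 two-fold compound dilutions in triplicate, CAMHB ± bicarbonate (6.25 or 25 mM final) or 0-50% heat-inactivated human serum; 5×10^4 CFU/well.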
A general note: Broth dilution looks for growth in wells or tubes with falling amounts of substance.

The subject of the next test is A. baumannn (Ab). Described as above. The format is cell-based. To be noted: A. baumannn; growth medium with sodium bicarbonate; read-out: Ab + bicarb MIC. In outline:
as §1

For a further test, the system named is E. coli (Ec). Described as above. The format is cell-based. To be noted: Escherichia coli, growth medium with sodium bicarbonate, read-out: E. coli + bicarb MIC. In outline:
as §1

For a further test, the system named is P. aeruginosa (Pa). Described as above. The format is cell-based. To be noted: Pseudomonas aeruginosa, growth medium with sodium bicarbonate, read-out: Pa MIC + bicarb. In outline: as §1
The subject of a further test is S. aureus (Sa). The test is described as above. To be noted: Staphylococcus aureus, growth medium with sodium bicarbonate, read-out: Sa + bicarb MIC. The class given is cell-based. In outline: as §1

Consider `CC(C)(N)C(=O)N1CCN(C(=O)Nc2ccn(-c3ccc(CCN4C[C@@H]5[C@H](C4)[C@H]5C(N)CN)cc3)c(=O)n2)CC1` (stereo partly drawn) [Compound 213], for which the IC50 in test [1] and in test [2] was not below 1 µM each time. For the same molecule, the MIC with E. faecalis (Ef) was more than 32 µg/mL; in the test with A. baumannn (Ab), more than 32 µg/mL; in the test on E. coli (Ec) it was less than 8 µg/mL; in the test with P. aeruginosa (Pa), more than 32 µg/mL; in the test on S. aureus (Sa), more than 32 µg/mL.
Take `CC(Cc1ccc(-n2ccc(NC(=O)N3CCN(C(=O)C(C)(C)N)CC3)nc2=O)cc1)N1CC2CCC(N)C2C1` (stereo not drawn) [Compound 214]: the figures for the IC50 in test [1] and in test [2] were not below 1 µM and less than 0.5 µM, respectively. Besides, the MIC with E. faecalis (Ef) is less than 8 µg/mL; in the test with A. baumannn (Ab) it was more than 32 µg/mL; with E. coli (Ec), less than 8 µg/mL; in the test on P. aeruginosa (Pa) it was more than 32 µg/mL; in the test with S. aureus (Sa), less than 8 µg/mL.
Turning to `CC(Cc1ccc(-n2ccc(NC(=O)N3CCN(C(=O)C(C)(C)N)CC3)nc2=O)cc1)N1CC2CCC(N)CC2C1` (stereo not drawn) [Compound 215], the IC50 in test [1] is not below 1 µM; in test [2], less than 0.5 µM. Also, in the test on E. faecalis (Ef), the “Ef + bicarb MIC” value was “++ (An MIC value (μg/mL) that is 8 μg/mL or greater and less than 32 μg/mL)”. Further, the MIC in the test with A. baumannn (Ab) was more than 32 µg/mL; in the test with E. coli (Ec) it was less than 8 µg/mL; in the test on P. aeruginosa (Pa), more than 32 µg/mL; in the test on S. aureus (Sa), less than 8 µg/mL.
As for `CC(Cc1ccc(-n2ccc(NC(=O)N3CCN(C(=O)C(C)(C)N)CC3)nc2=O)cc1)N1CC2CCCC(N)C2C1` (stereo not drawn) [Compound 216], the IC50 in test [1] was not below 1 µM; in test [2], less than 0.5 µM. Further, the MIC in the test on E. faecalis (Ef) was less than 8 µg/mL; in the test with A. baumannn (Ab) it was more than 32 µg/mL; in the test on E. coli (Ec), less than 8 µg/mL; with P. aeruginosa (Pa), more than 32 µg/mL; in the test on S. aureus (Sa) it was less than 8 µg/mL.
For the molecule `CCC(Cc1ccc(-n2ccc(NC(=O)N3CCN(C(=O)C(C)(C)N)CC3)nc2=O)cc1)N1CC2CCC(N)C2C1` (stereo not drawn) [Compound 217], the IC50 in test [1] is not below 1 µM; in test [2] it was less than 0.5 µM. The MIC in the test with E. faecalis (Ef) is less than 8 µg/mL; in the test on A. baumannn (Ab), more than 32 µg/mL; with E. coli (Ec) it was less than 8 µg/mL; in the test with P. aeruginosa (Pa), more than 32 µg/mL; with S. aureus (Sa) it was less than 8 µg/mL.
As to `CCC(Cc1ccc(-n2ccc(NC(=O)N3CCN(C(=O)C(C)(C)N)CC3)nc2=O)cc1)N1CC2CCC(N)CC2C1` (stereo not drawn) [Compound 218], the IC50 in test [1] was not below 1 µM; in test [2], less than 0.5 µM. The “Ef + bicarb MIC” value with E. faecalis (Ef) was “+++ (An MIC value (μg/mL) that is less than 8 μg/mL)”. For the same molecule, the MIC in the test with A. baumannn (Ab) is more than 32 µg/mL; in the test on E. coli (Ec) it was less than 8 µg/mL; with P. aeruginosa (Pa), more than 32 µg/mL; in the test on S. aureus (Sa) it was less than 8 µg/mL.
For the molecule `CCC(Cc1ccc(-n2ccc(NC(=O)N3CCN(C(=O)C(C)(C)N)CC3)nc2=O)cc1)N1CC2CCCC(N)C2C1` (stereo not drawn) [Compound 219], the figures for the IC50 in test [1] and in test [2] were not below 1 µM and less than 0.5 µM, respectively. For the same molecule, the MIC in the test on E. faecalis (Ef) is less than 8 µg/mL; with A. baumannn (Ab), more than 32 µg/mL; in the test with E. coli (Ec) it was less than 8 µg/mL; in the test on P. aeruginosa (Pa) it was more than 32 µg/mL; with S. aureus (Sa), less than 8 µg/mL.
As to `CC(Cc1ccc(-n2ccc(NC(=O)N3CCN(C(=O)C(C)(C)N)CC3)nc2=O)cc1)[N+]1(C)C[C@@H]2[C@@H](CN)[C@@H]2C1` (stereo partly drawn) [Compound 220], the IC50 in test [1] is not below 1 µM; in test [2], less than 0.5 µM. The MIC was 8 to 32 µg/mL with E. faecalis (Ef); more than 32 µg/mL with A. baumannn (Ab); less than 8 µg/mL with E. coli (Ec); more than 32 µg/mL in the test with P. aeruginosa (Pa); less than 8 µg/mL in the test on S. aureus (Sa).
As to `CCC(Cc1ccc(-n2ccc(NC(=O)N3CCN(C(=O)C(C)(C)N)CC3)nc2=O)cc1)N1C[C@@H]2[C@@H](CNC)[C@@H]2C1` (stereo partly drawn) [Compound 221], the IC50 in test [1] and in test [2] was not below 1 µM in each case. The MIC in the test with E. faecalis (Ef) was less than 8 µg/mL; with A. baumannn (Ab), less than 8 µg/mL; in the test on E. coli (Ec), less than 8 µg/mL; in the test with P. aeruginosa (Pa), more than 32 µg/mL; in the test with S. aureus (Sa) it was less than 8 µg/mL.

One may read the MIC as the smallest concentration in the dilution series that meets the test's criterion for growth inhibition.
